For test [1], the target named is T1, Inhibitor of nuclear factor kappa-B kinase subunit beta (Homo sapiens, UniProt O14920).
T1 sequence (O14920 whole entry): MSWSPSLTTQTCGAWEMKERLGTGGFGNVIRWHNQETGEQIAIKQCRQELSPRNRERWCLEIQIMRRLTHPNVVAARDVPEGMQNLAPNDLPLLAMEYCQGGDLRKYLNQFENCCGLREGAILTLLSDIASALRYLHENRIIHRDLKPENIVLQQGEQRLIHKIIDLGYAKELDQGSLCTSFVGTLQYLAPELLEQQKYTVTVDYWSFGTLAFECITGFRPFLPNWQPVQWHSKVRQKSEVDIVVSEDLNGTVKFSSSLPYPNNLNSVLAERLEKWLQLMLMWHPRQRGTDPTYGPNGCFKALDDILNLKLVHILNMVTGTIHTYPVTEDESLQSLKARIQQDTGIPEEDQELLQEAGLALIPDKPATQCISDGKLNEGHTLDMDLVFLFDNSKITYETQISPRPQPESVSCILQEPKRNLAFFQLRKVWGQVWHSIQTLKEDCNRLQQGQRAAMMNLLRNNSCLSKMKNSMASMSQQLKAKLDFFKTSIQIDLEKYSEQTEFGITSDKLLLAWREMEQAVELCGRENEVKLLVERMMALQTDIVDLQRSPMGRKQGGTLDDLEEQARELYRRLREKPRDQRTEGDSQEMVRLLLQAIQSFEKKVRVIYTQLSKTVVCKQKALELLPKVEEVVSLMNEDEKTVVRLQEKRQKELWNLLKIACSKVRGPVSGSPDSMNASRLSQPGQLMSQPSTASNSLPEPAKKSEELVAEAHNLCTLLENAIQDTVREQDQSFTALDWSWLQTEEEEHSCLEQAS
Put plainly: Inhibition of human recombinant GST tagged IKK2 expressed in baculovirus using Ser/Thr05 peptide as substrate after 60 mins by Z-LYTE assay.

Test [2] deals with T2, Inhibitor of nuclear factor kappa-B kinase subunit beta (Homo sapiens) (UniProt O14920).
T2 sequence (whole entry): T1 sequence (O14920 whole entry)
Put plainly: Inhibition of human recombinant GST tagged IKK2 expressed in baculovirus using Ser/Thr05 peptide as substrate at 10 uM after 60 mins by Z-LYTE assay.

Test [3] deals with T3, Inhibitor of nuclear factor kappa-B kinase subunit alpha (Homo sapiens) (UniProt O15111).
T3 sequence (whole entry): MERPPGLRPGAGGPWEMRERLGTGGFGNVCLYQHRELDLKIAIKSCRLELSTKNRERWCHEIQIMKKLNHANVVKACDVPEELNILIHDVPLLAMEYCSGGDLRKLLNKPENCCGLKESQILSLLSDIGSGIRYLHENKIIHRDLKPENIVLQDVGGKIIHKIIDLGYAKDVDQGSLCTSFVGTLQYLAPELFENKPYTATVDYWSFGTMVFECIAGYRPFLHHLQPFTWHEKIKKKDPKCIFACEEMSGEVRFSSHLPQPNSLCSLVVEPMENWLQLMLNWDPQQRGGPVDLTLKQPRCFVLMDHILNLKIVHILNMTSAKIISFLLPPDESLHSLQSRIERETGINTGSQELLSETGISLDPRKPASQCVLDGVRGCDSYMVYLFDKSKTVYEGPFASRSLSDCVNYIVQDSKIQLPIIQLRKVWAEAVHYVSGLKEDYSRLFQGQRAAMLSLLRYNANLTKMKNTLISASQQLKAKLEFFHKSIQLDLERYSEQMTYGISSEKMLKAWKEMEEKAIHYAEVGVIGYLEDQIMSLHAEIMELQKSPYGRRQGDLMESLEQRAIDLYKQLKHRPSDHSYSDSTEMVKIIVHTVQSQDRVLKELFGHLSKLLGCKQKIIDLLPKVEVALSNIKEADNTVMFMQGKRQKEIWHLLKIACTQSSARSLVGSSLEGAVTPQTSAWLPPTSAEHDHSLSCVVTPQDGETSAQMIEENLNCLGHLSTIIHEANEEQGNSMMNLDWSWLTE
Briefly: Inhibition of human recombinant His tagged IKK1 expressed in baculovirus at 10 uM after 60 mins by Adapta assay.

Active and inactive are the calls of the source. The calls are words filed in the database; no cut-off is given here.

Take `CNc1nc2ccc(C)cc2n2c(C)cnc12`: the IC50 (usually the concentration that inhibits the measured activity by half) in test [1] came to 0.773 µM. The inhibition – broadly, how much of the control response was suppressed – worked out at 65% in test [2] and 1% in test [3].
As for `CNc1nc2cc(C)ccc2n2c(-c3cccc(OC)c3)cnc12`, in test [2], the inhibition result is “inactive”. In addition, the inhibition in test [3] came to 7%.
As for `Cc1ccc2nc(NCCN)c3ncc(C)n3c2c1`, the inhibition in test [2] came out at 64%; in test [3], 8%.
Turning to `CNc1nc2ccccc2n2c(Br)cnc12`, the inhibition in test [2] was 60%; in test [3], 23%.
`CNc1nc2ccccc2n2c(C)cnc12`: the inhibition stood at 61% in test [2] and 7% in test [3].
Consider `CNc1nc2ccc(C)cc2n2c(Br)cnc12`, for which the IC50 in test [1] came to 0.324 µM. The results for the inhibition in test [2] and in test [3] were 72% and 13%, respectively.
In the case of `CNc1nc2cc(C)ccc2n2c(C)cnc12`, the inhibition in test [2] came out at 57%; in test [3] it was 19%.
With `CNc1nc2cc(C)ccc2n2ccnc12`, the inhibition in test [2] is 50%; in test [3], 9%.
Turning to `CNc1nc2ccccc2n2c(-c3cccc(OC)c3)cnc12`, the figures for the inhibition in test [2] and in test [3] were 2% and 13%, respectively.
On to `CNc1nc2ccc(C)cc2n2ccnc12`, for which the IC50 in test [1] amounted to 0.579 µM. The inhibition is 64% in test [2] and 9% in test [3].
Take `CNc1nc2cc(C)ccc2n2c(Br)cnc12`: the inhibition in test [2] stood at 54%; in test [3], 26%.
`CNc1nc2ccccc2n2ccnc12`: the inhibition in test [2] turned out to be 54%; in test [3], 7%.
As to `CNc1nc2ccc(C)cc2n2c(-c3cccc(OC)c3)cnc12`, the inhibition in test [2] and in test [3] was 3% throughout.

The record behind these values is ChEMBL document CHEMBL3785011, “New IKK inhibitors: Synthesis of new imidazo[1,2-a]quinoxaline derivatives using microwave assistance and biological evaluation as IKK inhibitors” (Eur J Med Chem, 2016).
